Experimental data published in patent US6841366B1, “Biotin biosynthesis in bacillus subtilis” (DSM IP Assets B.V., priority 1993, dated 2005).

How the values were obtained:
[1] = system: B. subtilis PY79 and azelaic acid resistant mutants; experiment: Growth inhibition by azelaic acid, minimal agar; assay type: cell-based
From the text: (§1) Azelaic acid, a straight chain C9 dicarboxylic acid, is a homolog of pimelic acid and is thought to be an intermediate in the conversion of oleic acid to pimelic acid (see Ohsugi and Inoue (1981) Agric. Biol. Chem. 45: 2355-2356, hereby incorporated by reference).
Seven spontaneous mutants that outgrew the background of PY79 on 2 g/l Azelaic acid were isolated. The resistance to azelaic acid appeared to be a stable trait in all but one case (see below). The seven mutants were provisionally named PA1-PA7 (PY79 Azelaic acid resistant). PA1 through PA7 were grown in test tubes in VY medium, and biotin production was assayed using E. coli indicator strains (Table 15). The mutants fell into two classes, those that yielded more biotin than PY79 (PA5, PA6) and those that were similar to PY79 (PA1, 2, 3, and 7). PA4 appeared to be either unstable or not a true mutant and was dropped from further study. Applicants also noticed that the mutants fell into two classes with respect to colony size on minimal agar with 2 g/l azelaic acid, and that these two classes corresponded to the two classes of biotin producers (Table 11). The mutants with the most biotin in the supernatant (PA5 and PA6) gave small colonies, while the biotin non-secreters, PA1, 2, 3, and 7, gave large colonies. PA1 and PA3 secreted a compound that cross-fed PY79 (i.e., reversed the azelaic acid inhibition of PY79) on minimal plates containing 2 g/l azelaic acid.

PY79 bioI::cat = experiment: Growth of bioI::cat mutants on biotin-free medium with supplements; assay type: cell-based, B. subtilis
E. coli strain MM294 = experiment: Azelaic acid sensitivity of wild-type E. coli; assay type: cell-based
From the text: (§2) Therefore, Applicants concluded that azelaic acid acts at the level of pimelyl CoA synthetase (bioW), either as a competitive inhibitor of pimelic acid, or by incorporation into a biotin homolog or other toxic intermediate.

[2] = system: E. coli strain RY604(ΔbioH) containing pBIO403; experiment: Growth of E. coli carrying only B. subtilis bioW, with pimelic acid and azelaic acid; assay type: cell-based
Protocol: A plasmid (pBIO403) containing only the B. subtilis bioW gene and its promoter cloned into pCL1921 (Lerner and Inouye, 1990, supra), complemented both E. coli ΔbioH and bioC mutants, if and only if pimelic acid was added to the medium at about 30 mg/l. This experiment confirmed that bioW encodes a pimelyl-CoA synthetase that can bypass bioH and bioC in E. coli.
as §2

B. subtilis = experiment: Stimulation of biotin vitamer production by pimelic acid; assay type: cell-based; settings: 1 g/l
Protocol: In all fermentations, 1 g/l pimelic acid was added to both the initial batch and feed solutions. BI282, BI278 and BI276 were the most optimized for biotin and biotin vitamer production.
Addition of pimelate to the fermentation medium results in an increased level of a biotin vitamer which is probably KAPA (FIG. 15, lane D). This was shown by an increase in the KAPA/BSO spot compared to similar fermentations without pimelate (FIG. 15, lane B).
as §1

SMILES | Growth inhibition of wild-type B. subtilis ([1]; azelaic acid at concentrations higher than 30 mg/l) | Growth inhibition of PY79 ([1]; minimal agar, azelaic acid 2 g/l (about 10^−2 M), did not kill or completely prevent growth) | Colony size on 2 g/l azelaic acid ([1]; strain PA1, minimal agar) | Colony size on 2 g/l azelaic acid ([1]; strain PA2, minimal agar) | Colony size on 2 g/l azelaic acid ([1]; strain PA3, minimal agar) | Colony size on 2 g/l azelaic acid ([1]; strain PA4, minimal agar) | Colony size on 2 g/l azelaic acid ([1]; strain PA5, minimal agar) | Colony size on 2 g/l azelaic acid ([1]; strain PA6, minimal agar) | Colony size on 2 g/l azelaic acid ([1]; strain PA7, minimal agar) | Colony size on 2 g/l azelaic acid ([1]; strain PY79, minimal agar) | Growth inhibition of PY79 bioI::cat9 (PY79 bioI::cat; 30 mg/l) | Substitution for pimelic acid in supporting growth of PY79 bioI::cat9 (PY79 bioI::cat; 30 mg/l) | Sensitivity of wild-type E. coli MM294 to azelaic acid (E. coli strain MM294) | Sensitivity of RY604/pBIO403 to azelaic acid ([2]; grown in excess pimelic acid (80 mg/l)) | Effect on biotin vitamer production in B. subtilis (B. subtilis) | Restoration of growth of PY79 bioI::cat9 bradytroph (PY79 bioI::cat; 30 mg/l) | Growth of PY79 bioI::cat strains (either cat orientation) on biotin-free medium (PY79 bioI::cat; pimelic acid 33 μg/ml) | Satisfaction of the biotin requirement of RY604(ΔbioH)/pBIO403 ([2]; 30 mg/l)
O=C(O)CCCCCCCC(=O)O [azelaic acid, Azelaic acid] | inhibits the growth | severely inhibited growth | large | large | large | tiny | small | small | large | tiny | severely inhibited the growth | does not substitute for pimelic acid | relatively resistant | sensitive to inhibition | – | – | – | –
O=C(O)CCCCCC(=O)O [pimelic acid] | – | – | – | – | – | – | – | – | – | – | – | – | – | – | stimulate biotin vitamer production | restore wild-type growth | grew to wild-type levels | can satisfy the biotin requirement
